The source made the active and inactive calls. No cut-off for these calls is given here.
Legend:
[1] = biological target: Ephrin type-A receptor 2 (Homo sapiens, UniProt P29317); experiment: Inhibition of EPHA2 (unknown origin) at 1 uM by Ambit Kinomescan binding assay relative to control
[2] = biological target: Phosphatidylinositol 4-kinase beta (Homo sapiens) (UniProt Q9UBF8); experiment: Inhibition of PI4KB ATP labeling site harbouring VPHTQAVVLNSKDKAPYLIYVEVLECENFDTTSVPAR in human A-375 cells at 0.05 uM by KiNativ Profiling analysis relative to control; format: cell-based
[3] = biological target: Phosphatidylinositol 4-kinase alpha (Homo sapiens) (UniProt P42356); experiment: Inhibition of PI4KA ATP labeling site in human A-375 cells at 0.05 uM by KiNativ Profiling analysis relative to control; format: cell-based
[4] = biological target: Proto-oncogene tyrosine-protein kinase ROS (Homo sapiens) (UniProt P08922); experiment: Inhibition of ROS1 (unknown origin) at 10 uM by Ambit Kinomescan binding assay
[5] = biological target: T1, Dual specificity mitogen-activated protein kinase kinase 6 (Homo sapiens) (UniProt P52564); experiment: Inhibition of MAP2K6 K1 labeling site in human Huh-7 cells at 1 uM by KiNativ Profiling analysis relative to control; format: cell-based
T1 sequence (whole entry): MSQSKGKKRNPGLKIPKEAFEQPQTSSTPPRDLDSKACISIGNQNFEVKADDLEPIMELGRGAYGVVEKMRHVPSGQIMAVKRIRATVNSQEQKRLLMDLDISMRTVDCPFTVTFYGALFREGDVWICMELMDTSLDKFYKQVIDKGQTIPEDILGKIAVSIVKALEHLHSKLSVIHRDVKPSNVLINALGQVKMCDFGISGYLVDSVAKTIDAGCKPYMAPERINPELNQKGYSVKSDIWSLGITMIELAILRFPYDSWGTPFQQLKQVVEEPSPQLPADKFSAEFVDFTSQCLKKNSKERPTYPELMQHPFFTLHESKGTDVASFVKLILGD

[6] = biological target: T2, Dual specificity mitogen-activated protein kinase kinase 5 (Homo sapiens) (UniProt Q13163); experiment: Inhibition of MAP2K5 Lys2 labeling site in human A-375 cells at 5 uM by KiNativ Profiling analysis relative to control; format: cell-based
T2 sequence (whole entry): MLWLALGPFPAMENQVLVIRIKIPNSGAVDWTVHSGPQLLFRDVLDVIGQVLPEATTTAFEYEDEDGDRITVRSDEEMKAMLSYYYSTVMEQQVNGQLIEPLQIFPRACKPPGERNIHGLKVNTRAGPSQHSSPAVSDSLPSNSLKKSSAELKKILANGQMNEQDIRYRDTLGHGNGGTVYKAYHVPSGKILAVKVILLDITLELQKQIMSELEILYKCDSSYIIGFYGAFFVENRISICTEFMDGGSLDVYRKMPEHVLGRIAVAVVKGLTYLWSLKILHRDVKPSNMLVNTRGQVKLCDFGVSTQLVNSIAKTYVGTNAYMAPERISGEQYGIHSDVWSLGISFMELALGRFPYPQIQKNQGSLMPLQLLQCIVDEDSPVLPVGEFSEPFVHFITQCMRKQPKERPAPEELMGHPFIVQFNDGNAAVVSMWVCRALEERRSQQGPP

[7] = biological target: T3, Serine/threonine-protein kinase D3 (Homo sapiens) (UniProt O94806); experiment: Inhibition of PRKD3 (unknown origin) at 10 uM by Ambit Kinomescan binding assay
T3 sequence (whole entry): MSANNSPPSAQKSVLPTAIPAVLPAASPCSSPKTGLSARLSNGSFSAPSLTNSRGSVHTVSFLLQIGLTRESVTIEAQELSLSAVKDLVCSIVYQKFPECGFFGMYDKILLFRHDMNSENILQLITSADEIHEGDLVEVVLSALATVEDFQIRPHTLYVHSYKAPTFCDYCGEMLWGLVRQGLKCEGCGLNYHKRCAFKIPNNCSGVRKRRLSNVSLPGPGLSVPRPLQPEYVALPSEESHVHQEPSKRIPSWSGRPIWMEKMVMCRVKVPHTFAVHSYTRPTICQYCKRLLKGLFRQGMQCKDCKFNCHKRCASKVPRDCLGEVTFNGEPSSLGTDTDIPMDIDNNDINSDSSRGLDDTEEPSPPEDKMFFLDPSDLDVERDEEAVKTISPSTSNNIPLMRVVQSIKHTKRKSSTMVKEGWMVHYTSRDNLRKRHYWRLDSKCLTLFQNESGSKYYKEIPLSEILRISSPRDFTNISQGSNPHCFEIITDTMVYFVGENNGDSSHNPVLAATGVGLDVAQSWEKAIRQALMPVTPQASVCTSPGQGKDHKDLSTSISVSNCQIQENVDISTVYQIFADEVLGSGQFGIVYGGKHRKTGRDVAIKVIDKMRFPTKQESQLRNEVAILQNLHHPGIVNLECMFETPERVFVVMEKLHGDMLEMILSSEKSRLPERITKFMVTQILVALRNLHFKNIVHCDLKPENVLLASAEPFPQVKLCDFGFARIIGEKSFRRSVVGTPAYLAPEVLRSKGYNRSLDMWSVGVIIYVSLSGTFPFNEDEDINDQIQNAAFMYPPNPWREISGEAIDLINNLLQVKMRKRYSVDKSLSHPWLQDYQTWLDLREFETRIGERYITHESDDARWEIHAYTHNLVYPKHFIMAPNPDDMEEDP

Phosphatidylinositol 4-kinase alpha (Homo sapiens), sequence (P42356 whole entry, looked up): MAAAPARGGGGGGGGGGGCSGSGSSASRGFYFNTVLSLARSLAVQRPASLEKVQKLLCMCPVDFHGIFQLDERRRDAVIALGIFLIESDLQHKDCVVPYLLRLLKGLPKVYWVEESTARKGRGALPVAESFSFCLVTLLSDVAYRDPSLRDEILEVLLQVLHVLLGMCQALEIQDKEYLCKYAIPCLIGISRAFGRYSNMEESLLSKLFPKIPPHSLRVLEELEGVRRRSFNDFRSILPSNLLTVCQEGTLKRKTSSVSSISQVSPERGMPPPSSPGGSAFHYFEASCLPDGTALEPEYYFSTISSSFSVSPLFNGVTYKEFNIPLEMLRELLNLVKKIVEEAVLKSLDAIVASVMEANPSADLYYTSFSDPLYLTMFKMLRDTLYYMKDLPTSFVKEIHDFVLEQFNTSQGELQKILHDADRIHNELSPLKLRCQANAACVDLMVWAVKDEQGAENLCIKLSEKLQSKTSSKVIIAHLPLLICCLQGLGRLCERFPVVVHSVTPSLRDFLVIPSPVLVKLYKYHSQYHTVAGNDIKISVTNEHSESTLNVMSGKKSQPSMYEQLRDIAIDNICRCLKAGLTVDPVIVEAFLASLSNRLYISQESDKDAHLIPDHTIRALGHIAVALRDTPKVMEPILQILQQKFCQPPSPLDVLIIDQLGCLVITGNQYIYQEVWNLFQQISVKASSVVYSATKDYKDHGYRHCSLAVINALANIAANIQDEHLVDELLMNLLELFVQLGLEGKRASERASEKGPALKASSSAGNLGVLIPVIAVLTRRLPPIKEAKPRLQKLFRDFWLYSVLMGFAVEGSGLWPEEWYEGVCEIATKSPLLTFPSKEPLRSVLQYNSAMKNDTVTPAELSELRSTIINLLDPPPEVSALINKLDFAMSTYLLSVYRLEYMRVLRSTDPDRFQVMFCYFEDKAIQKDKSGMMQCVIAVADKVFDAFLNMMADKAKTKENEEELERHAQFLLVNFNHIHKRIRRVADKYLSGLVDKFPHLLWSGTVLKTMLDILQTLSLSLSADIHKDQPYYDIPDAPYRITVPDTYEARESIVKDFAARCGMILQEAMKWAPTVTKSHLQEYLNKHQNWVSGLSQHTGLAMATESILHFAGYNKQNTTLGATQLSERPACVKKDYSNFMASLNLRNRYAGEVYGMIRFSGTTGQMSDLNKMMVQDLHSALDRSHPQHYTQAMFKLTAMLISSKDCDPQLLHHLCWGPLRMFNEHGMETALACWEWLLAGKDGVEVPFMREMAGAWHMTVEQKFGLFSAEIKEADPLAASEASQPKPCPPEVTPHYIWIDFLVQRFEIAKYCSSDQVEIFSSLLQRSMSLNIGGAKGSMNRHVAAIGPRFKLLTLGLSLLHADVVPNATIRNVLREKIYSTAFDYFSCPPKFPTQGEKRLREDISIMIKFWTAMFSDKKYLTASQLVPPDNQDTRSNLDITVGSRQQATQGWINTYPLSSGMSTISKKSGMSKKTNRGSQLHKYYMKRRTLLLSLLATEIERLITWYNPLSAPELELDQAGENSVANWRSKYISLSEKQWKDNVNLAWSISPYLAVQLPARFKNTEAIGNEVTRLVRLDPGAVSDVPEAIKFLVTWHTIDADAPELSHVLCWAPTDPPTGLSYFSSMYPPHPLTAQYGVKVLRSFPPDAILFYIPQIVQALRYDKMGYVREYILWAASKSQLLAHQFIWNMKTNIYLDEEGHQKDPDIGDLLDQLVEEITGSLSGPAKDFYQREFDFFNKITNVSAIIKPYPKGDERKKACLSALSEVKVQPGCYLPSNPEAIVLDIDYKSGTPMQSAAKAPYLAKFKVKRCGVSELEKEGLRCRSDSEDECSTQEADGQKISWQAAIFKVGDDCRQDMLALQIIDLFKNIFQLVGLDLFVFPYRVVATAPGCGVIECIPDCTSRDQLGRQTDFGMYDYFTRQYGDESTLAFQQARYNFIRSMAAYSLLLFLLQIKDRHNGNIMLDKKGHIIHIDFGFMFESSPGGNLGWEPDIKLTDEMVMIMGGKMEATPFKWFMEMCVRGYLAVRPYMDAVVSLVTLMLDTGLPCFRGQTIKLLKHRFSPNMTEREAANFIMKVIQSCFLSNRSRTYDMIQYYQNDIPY
Ephrin type-A receptor 2, sequence (P29317 whole entry): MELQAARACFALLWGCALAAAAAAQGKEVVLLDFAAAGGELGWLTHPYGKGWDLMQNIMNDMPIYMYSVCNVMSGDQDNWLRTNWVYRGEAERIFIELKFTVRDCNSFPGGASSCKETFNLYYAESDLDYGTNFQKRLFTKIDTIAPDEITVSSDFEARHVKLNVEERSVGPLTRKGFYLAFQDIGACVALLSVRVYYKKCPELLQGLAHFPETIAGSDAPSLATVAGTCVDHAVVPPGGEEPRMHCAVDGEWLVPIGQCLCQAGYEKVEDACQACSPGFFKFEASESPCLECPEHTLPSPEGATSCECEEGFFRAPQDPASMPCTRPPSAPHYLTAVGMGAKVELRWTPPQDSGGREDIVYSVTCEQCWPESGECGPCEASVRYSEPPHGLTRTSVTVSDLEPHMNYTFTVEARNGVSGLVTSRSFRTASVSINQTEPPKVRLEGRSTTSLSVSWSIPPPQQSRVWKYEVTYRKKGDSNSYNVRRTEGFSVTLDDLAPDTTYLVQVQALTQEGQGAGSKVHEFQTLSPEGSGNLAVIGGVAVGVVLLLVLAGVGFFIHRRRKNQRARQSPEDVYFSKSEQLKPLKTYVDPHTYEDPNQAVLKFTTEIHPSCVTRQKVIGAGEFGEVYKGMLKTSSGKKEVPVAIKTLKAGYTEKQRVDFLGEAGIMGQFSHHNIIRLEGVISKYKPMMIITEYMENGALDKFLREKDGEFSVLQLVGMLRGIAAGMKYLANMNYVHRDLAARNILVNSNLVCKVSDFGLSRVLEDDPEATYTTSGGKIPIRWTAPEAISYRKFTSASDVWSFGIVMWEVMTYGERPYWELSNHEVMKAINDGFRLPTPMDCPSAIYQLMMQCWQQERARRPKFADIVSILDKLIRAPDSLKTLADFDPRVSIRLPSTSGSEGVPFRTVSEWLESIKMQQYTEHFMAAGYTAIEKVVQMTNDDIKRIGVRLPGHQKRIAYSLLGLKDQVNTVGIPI
Phosphatidylinositol 4-kinase beta (Homo sapiens), sequence (Q9UBF8 2-816 limits assumed): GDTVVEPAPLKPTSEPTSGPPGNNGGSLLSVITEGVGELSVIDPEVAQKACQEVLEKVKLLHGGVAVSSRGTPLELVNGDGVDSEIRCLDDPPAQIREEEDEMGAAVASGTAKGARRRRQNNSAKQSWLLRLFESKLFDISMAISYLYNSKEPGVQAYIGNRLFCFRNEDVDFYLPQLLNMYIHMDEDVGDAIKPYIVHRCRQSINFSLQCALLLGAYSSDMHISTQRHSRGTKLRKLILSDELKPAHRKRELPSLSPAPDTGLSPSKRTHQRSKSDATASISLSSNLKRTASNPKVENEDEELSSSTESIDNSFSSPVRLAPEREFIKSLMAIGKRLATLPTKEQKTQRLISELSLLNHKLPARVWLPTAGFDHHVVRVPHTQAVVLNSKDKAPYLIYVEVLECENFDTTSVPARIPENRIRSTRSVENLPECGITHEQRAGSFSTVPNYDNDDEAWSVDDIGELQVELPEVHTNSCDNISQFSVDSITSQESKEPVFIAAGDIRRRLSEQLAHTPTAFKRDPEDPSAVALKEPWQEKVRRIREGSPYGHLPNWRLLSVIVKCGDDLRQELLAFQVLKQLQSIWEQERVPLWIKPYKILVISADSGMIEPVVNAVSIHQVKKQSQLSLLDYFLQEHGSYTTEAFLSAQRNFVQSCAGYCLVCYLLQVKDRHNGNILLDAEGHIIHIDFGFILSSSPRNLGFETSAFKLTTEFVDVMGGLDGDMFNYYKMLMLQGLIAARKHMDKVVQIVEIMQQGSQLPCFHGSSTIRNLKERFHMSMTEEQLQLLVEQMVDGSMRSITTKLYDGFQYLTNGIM

SMILES	percent of control [1] [%]	inhibition [2] [%]	inhibition [3] [%]	inhibition [4]	inhibition [5] [%]	inhibition [6] [%]	inhibition [7]
CCN1CCN(Cc2ccc(NC(=O)c3ccc(C)c(/C=C/c4cnc5[nH]ccc5c4OC)c3)cc2C(F)(F)F)CC1	1.2	11.6	0.8	–	–	–	–
CCN1CCN(Cc2ccc(NC(=O)c3ccc(C)c(Oc4ccnc5[nH]ccc45)c3)cc2C(F)(F)F)CC1	–	–	–	inactive	16.3	-7.1	inactive
